# From ChEMBL document CHEMBL3124911, “Chikungunya virus: emerging targets and new opportunities for medicinal chemistry” (J Med Chem, 2014)
# Columns and labels:
# [1] = system: Chikungunya virus; experiment: Antiviral activity against Chikungunya virus infected in BHK21 cells assessed as inhibition of viral replication after 24 hrs; assay type: functional, cell-based; conditions: BHK-21, 24 h
# [2] = system: Chikungunya virus; experiment: Antiviral activity against Chikungunya virus; assay type: functional
# [3] = system: Chikungunya virus; experiment: Antiviral activity against Chikungunya virus by cell-based assay; assay type: functional
# [4] = Selectivity index, ratio of CC50 for African green monkey Vero cells to EC50 for Chikungunya virus; assay type: toxicity, cell-based; conditions: read-out: Ratio CC50/EC50
# [5] = system: Chikungunya virus; experiment: Antiviral activity against Chikungunya virus infected in African green monkey Vero cells assessed as inhibition of virus-induced cytopathic effect; assay type: functional, cell-based
# [6] = Inhibition of Chikungunya virus IMPDH
smiles,measurement,setting,value
COC(=O)C[C@](O)(CCC(C)(C)O)C(=O)O[C@@H]1C(OC)=C[C@]23CCCN2CCc2cc4c(cc2[C@H]13)OCO4 [HARRINGTONINE],EC50,[1],240 nM
CCN(CC)CCCC(C)Nc1ccnc2cc(Cl)ccc12 (stereo unspecified) [CHLOROQUINE],IC50,[2],1.1 µg/mL
C=C(C)[C@@H]1CC[C@]2(C)CC[C@]3(C)[C@H](CC[C@@H]4[C@@]5(C)CCC(=O)C(C)(C)[C@@H]5CC[C@]43C)[C@@H]12 [LUPENONE],EC50,[3],77 µM
CCOc1ccc(/C=N/NC(=O)C2CC2c2ccc(C(C)(C)C)cc2)cc1OCC (stereo unspecified),selectivity ratio,[4],14
same,EC50,[5],5 µM
COc1c(C)c2c(c(O)c1C/C=C(\C)CCC(=O)O)C(=O)OC2 [MYCOPHENOLIC ACID],IC50,[6],200 nM
C=C(C)[C@@]1(O)[C@@H]2OC3(c4ccccc4)O[C@H]1[C@@H](C)[C@]1(O3)C3=CC(=C(Cl)Cl)[C@H](OC(=O)c4ccccc4)[C@@]3(O)[C@H](OC(C)=O)[C@@]3(COC(C)=O)O[C@H]3[C@@H]21,EC50,[2],1500 nM
CCOC(=O)c1c(CSc2ccccc2)n(C)c2cc(Br)c(O)c(CN(C)C)c12 [UMIFENOVIR],IC50,[3],12.2 µM
O=c1cnn([C@@H]2O[C@H](CO)[C@@H](O)[C@H]2O)c(=O)[nH]1 [6-AZAURIDINE],EC50,[2],0.2 µg/mL
CC1(C)CC[C@]2(C)CC[C@]3(C)C(=CC[C@@H]4[C@@]5(C)CCC(=O)C(C)(C)[C@@H]5CC[C@]43C)[C@@H]2C1,EC50,[3],86 µM
NC(=O)c1ncn([C@@H]2O[C@H](CO)[C@@H](O)[C@H]2O)n1 [RIBAVIRIN],EC50,[2],83.3 µg/mL
CCOC(=O)c1c(C[S+]([O-])c2ccccc2)n(C)c2cc(Br)c(O)c(CN(C)C)c12 (stereo unspecified),IC50,[3],54.5 µM
C=C[C@H]1CN2CC[C@H]1C[C@H]2[C@H](O)c1ccnc2ccc(OC)cc12 [QUININE],IC50,[2],0.1 µg/mL
CCOc1ccc(/C=N/NC(=O)/C=C/c2ccc(C(C)(C)C)cc2)cc1OCC,selectivity ratio,[4],32
same,EC50,[5],3.2 µM
CCOC(=O)c1c(CS(=O)(=O)c2ccccc2)n(C)c2cc(Br)c(O)c(CN(C)C)c12,IC50,[3],56.4 µM
